The source of these data is paper PMC12358994, “Proline Homologation in Melanostatin Neuropeptide: Discovery of Potent Modulators of the Dopamine D2 Receptors” (ACS Medicinal Chemistry Letters, 2025).

Peptide text beside a SMILES is read from it.

Series [1] concerns differentiated SH-SY5Y neuronal cells. Description: Neutral red (NR) uptake assay in differentiated SH-SY5Y cells. The format is cell-based, human. As to conditions: 125 μM, 48 h; positive control for cytotoxicity. How it is done: (§1) Following a protocol established in our research group, , these compounds were tested at 100 μM concentration using the 3-(4,5-dimethylthiazol-2-yl)-2,5-diphenyltetrazolium bromide (MTT) reduction and the neutral red (NR) uptake assays.
(§2) 5 Neurotoxic effects of the synthesized compounds were examined via MTT reduction (A) and NR uptake (B) assays in differentiated SH-SY5Y neuronal cells. Cells were incubated for 48 h with 1, 9, MIF-1 (100 μM), or 6-OHDA (125 μM). Compounds were solubilized in phosphate-buffered saline (PBS) solution. Results are reported as a percentage relative to the control (PBS) and shown as mean ± standard deviation. Data were collected from 16 to 36 wells across 9 independent experiments for the MTT reduction assay and from 12 wells and 3 independent experiments for the NR uptake assay. Statistical analyses were performed using the analysis of variance (ANOVA) test, followed by Tukey’s post hoc test (*p < 0.05 and ****p < 0.0001 vs control).
(§3) 4. Cytotoxicity in Human Neuronal SH-SY5Y Cells. The SH-SY5Y cell line was sourced from Sigma-Aldrich (Taufkirchen, Germany). DMEM medium [DMEM (1x) + GlutaMAX], DMEM/F-12, and Fetal Bovine Serum (FBS) were purchased from Gibco and Alfagene (Carcavelos, Portugal). Penicillin and Streptomycin were obtained from Biotecnómica (Porto, Portugal). Phosphate-buffered solution (PBS) without calcium and magnesium was acquired from Biochrom (Berlin, Germany). Trypsin/EDTA solution, 0.4% (w/v) trypan blue solution, NR solution, RA, and TPA were also obtained from Sigma-Aldrich (Germany). DMSO and HBSS (Hanks' Balanced Salt Solution) were purchased from Merck (Germany). MTT was sourced from Alfa Aesar (Kandel, Germany). 6-OHDA hydrobromide (CAS: 636-00-0) was acquired from Sigma-Aldrich (Germany).
(§4) Cell counts were performed on a Neubauer chamber using a Nikon Eclipse TS100 microscope from Nikon (Japan), and plate readings (MTT reduction and NR uptake assays) were conducted on a BioTek Synergy HT plate reader from BioTek (USA). Tissue culture flasks (25 cm²) and tissue culture 48 -well plates were purchased from TPP (Switzerland), while 5-, 10-, and 25-mL serological pipettes were obtained from Nerbe-Plus (Germany). Throughout all procedures, SH-SY5Y cells were maintained in a 5% CO2 incubator from Heraeus (Germany) at 37 °C. Cells were trypsinized after reaching confluence before experiments or for general culture maintenance.
(§5) Human neuroblastoma SH-SY5Y cells were maintained in complete DMEM medium supplemented with 10% (v/v) FBS and 1% (v/v) antibiotics (100 units/mL penicillin and 100 μg/mL streptomycin), at 37 °C in a 5% CO2 incubator throughout all procedures. […] After trypsin inactivation, cells were counted using a 0.4% (w/v) trypan blue solution and an optical microscope. […]

Series [2] shares this test system. Description: MTT reduction assay in differentiated SH-SY5Y cells. It is filed as cell-based, human. As to conditions: 125 μM, 48 h; positive control for cytotoxicity. Here is the method: as §1, §2, §3, §4, §5
A short description of series [3]: Neutral red (NR) uptake assay in differentiated SH-SY5Y cells. The format is cell-based, human. As to conditions: human. Here is the method:
as §1, §2, §3, §4, §5

A short description of series [4]: MTT reduction assay in differentiated SH-SY5Y cells. As to conditions: human. The format is cell-based, human. How it is done:
as §1, §2, §3, §4, §5
A general note: Tetrazolium assays rely on reduction of a dye to a coloured formazan, in cell work by metabolically active cells.

Series [5] has as its system dopamine receptors isolated from bovine caudate tissue. Set-up: method as in Johnson and co-workers. Conditions: 100 nM; ref Johnson and co-workers; cited from earlier work.
The target of a further series is human D2R (Homo sapiens, UniProt P14416). Description: D2R functional assay in the absence of dopamine (intrinsic agonist activity). The format is cell-based. Here is the method:
To exclude intrinsic agonist activity and validate the PAM mechanism of the best-performing MIF-1 derivatives 1 and 9, the same experiments were conducted in the absence of dopamine and compared to the concentration–response curve of dopamine alone (Figure ).
3 Concentration–response for compounds 1 and 9 obtained at human D2R in the absence of dopamine (DA), with the DA concentration–response curve included for reference. Data are presented as the mean ± standard deviation from three independent experiments.

Sequence of human D2R (P14416 whole entry): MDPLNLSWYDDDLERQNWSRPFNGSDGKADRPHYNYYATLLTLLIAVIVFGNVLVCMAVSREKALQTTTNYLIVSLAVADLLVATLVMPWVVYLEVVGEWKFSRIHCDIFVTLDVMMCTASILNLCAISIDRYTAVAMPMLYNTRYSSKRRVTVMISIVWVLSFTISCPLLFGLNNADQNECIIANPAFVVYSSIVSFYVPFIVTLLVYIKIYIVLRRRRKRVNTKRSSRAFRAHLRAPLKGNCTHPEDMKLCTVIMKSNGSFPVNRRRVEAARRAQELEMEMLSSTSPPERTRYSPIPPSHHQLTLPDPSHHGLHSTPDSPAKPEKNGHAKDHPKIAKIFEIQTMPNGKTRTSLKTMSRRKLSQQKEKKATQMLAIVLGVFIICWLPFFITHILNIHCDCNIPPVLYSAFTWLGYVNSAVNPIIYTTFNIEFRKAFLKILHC

In the case of `NCCc1cc(O)c(O)cc1O` [6-OHDA, 6-hydroxydopamine, reference compound], the “NR uptake, percentage relative to control (PBS)” value in series [1] amounted to 57.26 ± 7.41%. Besides, the “MTT reduction, percentage relative to control (PBS)” value in series [2] was determined as 45.64 ± 11.85%.

One may read the viability as a read-out of living cells in per cent, often relative to untreated cells. Regarding `CC(C)C[C@H](NC(=O)[C@@H]1CCCN1)C(=O)NCC(N)=O` [MIF-1, L-prolyl-L-leucylglycinamide, reference compound] (H-Pro-Leu-Gly-NH2), the viability at 48 h, 100 µM in series [3] amounted to 97.8 ± 8.56%; in series [4], 105 ± 6%. The “enhancement of specific binding of [3H]-ADTN (maximal effect)” value in series [5] was 46.2 ± 13.4%.

Consider `CC(C)C[C@H](NC(=O)[C@@H]1CCCCN1)C(=O)NCC(N)=O` [compound 1, L-pipecolyl-L-leucylglycinamide] (HELM PEPTIDE1{[O=C([C@@H]1CCCCN1)[*:2]].L.G.[am]}$$$$V2.0), for which the viability at 48 h, 100 µM was 102 ± 3.48% in series [3] and 105 ± 7.1% in series [4]. Moreover, in series [5], the “enhancement of specific binding of [3H]-ADTN (maximal effect)” value is given as 58.7 ± 9.3%. Moreover, at human D2R, the intrinsic agonistic effect entry was “no intrinsic agonistic effect”.

With `COC(=O)CNC(=O)[C@H](CC(C)C)NC(=O)[C@@H]1CCCCN1` [compound 9, methyl L-pipecolyl-L-leucylglycinate] (HELM PEPTIDE1{[O=C([C@@H]1CCCCN1)[*:2]].L.G.[CO[*:1]]}$$$$V2.0), the values for the viability at 48 h, 100 µM in series [3] and in series [4] were 100 ± 2.09% and 105 ± 6.8%, respectively. For the same compound, the intrinsic agonistic effect entry on human D2R is on record as “no intrinsic agonistic effect”.
